Reference: patent US5631248A, “Supersaturated topical compositions” (priority 1992, dated 1997)

Test: Saturated concentration of hydrocortisone acetate in propylene glycol
Format: physicochemical
Settings: saturated solution in propylene glycol (Sample A)

CC(=O)OCC(=O)[C@@]1(O)CC[C@H]2[C@@H]3CCC4=CC(=O)CC[C@]4(C)[C@H]3[C@@H](O)C[C@@]21C [hydrocortisone acetate]
concentration of saturated solution in propylene glycol: 0.10 % w/w
